Experimental data taken from ChEMBL document CHEMBL1158854, “Antimycobacterial polyynes of Devil's Club (Oplopanax horridus), a North American native medicinal plant” (1997).
Values after ≈ are worked out from the molar mass of the structure shown. Active and inactive are the calls of the source. The calls are words filed in the database; no cut-off is given here.

Key:
Pseudomonas aeruginosa [1] = experiment: Antimicrobial activity against Pseudomonas aeruginosa Z61 by twofold serial microbroth dilution method; assay type: functional
Pseudomonas aeruginosa [2] = experiment: Antimicrobial activity against Pseudomonas aeruginosa K799 by twofold serial microbroth dilution method; assay type: functional
Mycobacterium avium [3] = experiment: Antimycobacterial activity against isoniazid-resistant Mycobacterium avium at 100 ug/disk by disk diffusion assay; assay type: functional, organism-based
Staphylococcus aureus [4] = experiment: Antimicrobial activity against methicillin-susceptible Staphylococcus aureus RN4220 by twofold serial microbroth dilution method; assay type: functional
Mycobacterium avium [5] = experiment: Antimycobacterial activity against isoniazid-resistant Mycobacterium avium at 20 ug/disk by disk diffusion assay; assay type: functional, organism-based
[6] = tested on: Mycobacterium tuberculosis; experiment: Antimycobacterial activity against Mycobacterium tuberculosis at 20 ug/disk by disk diffusion assay; assay type: functional, organism-based
[7] = tested on: Mycobacterium tuberculosis; experiment: Antimycobacterial activity against Mycobacterium tuberculosis at 100 ug/disk by disk diffusion assay; assay type: functional, organism-based
Candida albicans = experiment: Antimicrobial activity against Candida albicans UBC54 by twofold serial microbroth dilution method; assay type: functional
Bacillus subtilis = experiment: Antimicrobial activity against Bacillus subtilis UBC221 by twofold serial microbroth dilution method; assay type: functional
Escherichia coli [8] = experiment: Antimicrobial activity against Escherichia coli DC2 by twofold serial microbroth dilution method; assay type: functional
Staphylococcus aureus [9] = experiment: Antimicrobial activity against methicillin-resistant Staphylococcus aureus SAP00017 by twofold serial microbroth dilution method; assay type: functional
Escherichia coli [10] = experiment: Antimicrobial activity against Escherichia coli UB1005 by twofold serial microbroth dilution method; assay type: functional
[11] = tested on: Mycobacterium tuberculosis; experiment: Antimycobacterial activity against Mycobacterium tuberculosis at 10 ug/disk by disk diffusion assay; assay type: functional, organism-based
Mycobacterium avium [12] = experiment: Antimycobacterial activity against isoniazid-resistant Mycobacterium avium at 10 ug/disk by disk diffusion assay; assay type: functional, organism-based

Compound	MIC (Pseudomonas aeruginosa [1]) [µg/mL]	MIC (Pseudomonas aeruginosa [2]) [µg/mL]	Activity (Mycobacterium avium [3])	MIC (Staphylococcus aureus [4]) [µg/mL]	Activity (Mycobacterium avium [5])	Activity [6]	Activity [7]	MIC (Candida albicans) [µg/mL]	MIC (Bacillus subtilis) [µg/mL]	MIC (Escherichia coli [8]) [µg/mL]	MIC (Staphylococcus aureus [9]) [µg/mL]	MIC (Escherichia coli [10]) [µg/mL]	Activity [11]	Activity (Mycobacterium avium [12])
C=C[C@H](O)C#CC#CC/C=C\CCCCCCC [FALCARINOL]	6.25 (≈ 25.6 µM)	> 50	Active	3.1 (≈ 12.7 µM)	Active	Active	Active	6.25 (≈ 25.6 µM)	3.1 (≈ 12.7 µM)	6.25 (≈ 25.6 µM)	3.1 (≈ 12.7 µM)	> 50		
GENTAMICIN	0.6	1.25		0.6					1.25	0.6	> 10	1.25		
CC[C@H](O)C#CC#C[C@@H](O)/C=C\CCCCCCCCOC(C)=O [OPLOPANDIOL ACETATE]	> 50	> 50	Active	50	Active	Active	Active	> 50	25	> 50	> 50	> 50		
C=C[C@H](O)C#CC#C[C@@H](O)/C=C\CCCCCCCCOC(C)=O	> 50	> 50	Active	50 (≈ 150 µM)	Active		Active	> 50	25 (≈ 75.2 µM)	> 50	> 50	> 50		
NNC(=O)c1ccncc1			inactive		inactive	Active	Active						Active	inactive
COc1cccc(OC)c1C(=O)N[C@@H]1C(=O)N2[C@@H]1SC(C)(C)[C@@H]2C(=O)O [METHICILLIN]	3.1 (≈ 8.15 µM)	> 100		1.6 (≈ 4.21 µM)				> 100	100 (≈ 263 µM)	1.6 (≈ 4.21 µM)		> 100		
CCCCCCC/C=C\[C@H](O)C#CC#C[C@@H](O)CC [OPLOPANDIOL]	> 50	> 50	Active	6.25 (≈ 23.8 µM)			Active	12.5 (≈ 47.6 µM)	6.25 (≈ 23.8 µM)	6.25 (≈ 23.8 µM)	6.25 (≈ 23.8 µM)	> 50		
C=C[C@@H](O)C#CC#C[C@@H](O)/C=C\CCCCCCC [FALCARINDIOL]	50 (≈ 192 µM)	> 50	Active	25 (≈ 96 µM)	Active		Active	25 (≈ 96 µM)	6.25 (≈ 24 µM)	25 (≈ 96 µM)	25 (≈ 96 µM)	> 50		
